Laboratory results reported in paper PMC3337405 (Cancer Chemotherapy and Pharmacology, 2012).
Several values for one entry are separate records, joined by “and”; a condition that tells them apart may be missing. Identical values can stand only once. One block for each compound: values may come before it.

Columns and labels:
healthy volunteers [1] = assay: Concentration–QT linear random-effects model; format: in vivo, human; conditions: for concentration versus QTcF slope: plasma concentration of the analyte after midostaurin dosing, day 3
From the text: Baseline QTcF was included in the model as a covariate. […] This exploratory analysis was applied to both the change from the time-matched baseline and the change from time-averaged baseline.

[2] = cited from earlier work
[3] = Plasma pharmacokinetics, noncompartmental analysis
Procedure: (§2) Blood samples for PK analysis were collected predose and 0.5, 1, 2, 3, 4, 8, 12, and 24 h post dose on days 1 and 3 at the same time as ECG assessments. […] Noncompartmental analysis (WinNonlin™ version 5.2, Pharsight, Sunnyvale, California) was performed to determine the following PK parameters: C max, T max, minimum (trough) plasma concentration over a dosing interval (C min), and AUC calculated using a trapezoidal method. For moxifloxacin, the AUC from time 0 to the last measurable concentration sampling time was calculated (AUC0–tlast).

[4] = human, in vivo
Procedure: as §2

healthy volunteers [5] = assay: Thorough QT/QTc study: QTcF change from baseline on day 3 (12-lead ECG); format: in vivo, human
From the text: This study was a phase I, randomized, double-blind, placebo- and active-controlled, 3-way, parallel-group study conducted at a single center in the United States and approved by the Arkansas Research Medical Testing, LLC, Institutional Review Board. The design followed the recommendations of the International Conference on Harmonisation of Technical Requirements for Registration of Pharmaceuticals for Human Use (ICH) E14 guideline on “The Clinical Evaluation of QT/QTc Interval Prolongation and Proarrhythmic Potential for Non-Antiarrhythmic Drugs” [19]. As such, the trial included a concurrent positive control group and addressed intrinsic variability by conducting multiple ECGs at baseline and during the study. The study was conducted according to the ethical principles of the Declaration of Helsinki, and written informed consent was obtained from each subject during screening.
The treatment regimen was selected to achieve maximal plasma exposure for QTc evaluation while minimizing the risks of excessive or prolonged exposure in healthy volunteers.
The baseline comparison was from day −1 to day 3 at matched time points.
The following hypothesis was tested to confirm that the study had sufficient assay sensitivity: [drawing 3] [drawing 4] where μmoxi(t) was the mean QTcF change from baseline observed following moxifloxacin 400 mg at time point t. If the null hypothesis was rejected, the study had sufficient sensitivity. The Simes method was used for the protection of an experiment-wise 5% type I error [22, 23]. With the Simes method, the original P values corresponding to 0.5, 1, 2, 3, and 4 h post baseline are ordered increasingly, that is, P 1 ≤ P 2 ≤ P 3 ≤ P 4 ≤ P 5. After the Simes correction, the P values were 5P 1, 5P 2/2, 5P 3/3, 5P 4/4, and P 5 respectively. If any of the 5 adjusted P values were <.05, assay sensitivity was claimed. Only the participants who completed all scheduled doses of study medication from day 1 to day 3 and had at least 1 ECG on day −1 (baseline) and at least 1 ECG on day 3 (time-matched day 3 data for the time-matched analysis) were included in the assay sensitivity test.
Electrocardiogram measurements at each time point were calculated as an average of 3 separate ECG extractions or replicates. (Each extraction was the mean of 3 beats.) If fewer than 3 measurements were available, the available samples were averaged (i.e., a minimum of 1 measure was required). For each subject, the time-matched baseline value was subtracted from the QT/QTc intervals to determine the change from baseline in QT/QTc intervals for that subject. The 2 null hypotheses described above were tested in a linear mixed-effect model with a compound symmetry covariance structure. The model included the baseline measure as covariate and treatment, time, and the treatment-by-time interaction as fixed effects, where time was a categorical variable and subject was a random effect.
The time-matched analysis was conducted on the QTcF change from the time-matched baseline as recommended by the ICH E14 guideline. Although modeling change from the time-matched baseline was the primary analysis, the change from the time-averaged baseline was also analyzed using the same model. For the averaged baseline, each triplicate ECG collection was averaged first, and then the averaged baseline was calculated based on all the averaged triplicate ECG and unscheduled ECGs.
(§1) Standard triplicate 12-lead ECGs were obtained at 9 time points over 24 h at baseline on day 3 and at 2 time points on day 1. Electrocardiogram analysis was performed at a blinded central reading facility (ERT, East Bridgewater, NJ) in digital format, with paper tracings obtained and archived immediately on site. Vital signs were assessed daily. Clinical laboratory parameters were assessed at baseline and at the end of study. Self-reported adverse events were continuously recorded from the first study treatment (placebo, day −1) through the end of study on day 4.

healthy volunteers [6] = assay: Outlier analysis of QTc and other ECG parameters, ECG morphology; format: in vivo, human; conditions: for QTcB >30 ms, time-matched change from baseline, participants: text: 30- to 60-ms category
Procedure: Outlier analysis for QTc was also exploratory because this study was not powered to detect individuals with genetic sensitivity to potential QT-prolonging drugs. The nonspecific outlier criterion was a change from baseline in QTc interval of 30–60 ms.
as §1

healthy volunteers [7] = assay: Adverse events and discontinuations; format: in vivo, human
Procedure: as §1, with “Electrocardiogram” for “Standard triplicate 12-lead ECGs were obtained at 9 time points over 24 h at baseline on day 3 and at 2 time points on day 1. Electrocardiogram”

QTcF interval = conditions: cited from earlier work
QT interval = conditions: ref 16 (AC220), 17 (MLN518), 18 (sorafenib); cited from earlier work
[8] = moxifloxacin 400 mg, 1 h post dose on day 3

- Tmax ([3]; human, plasma, oral, 75 mg, time of peak concentrations post dose, midostaurin dosing, days 1 and 3): 3 to 4 h
- AUC(0-t) ([3]; human, plasma, po, 75 mg): 3510 ng·h/mL
- Cmax ([3]; human, plasma, po, 75 mg, mean (SD), Day 1 (single dose), midostaurin 75 mg oral, plasma): 384 ng/mL
- Cmax ([3]; human, plasma, po, 75 mg, mean (SD), Day 3 (twice daily), midostaurin 75 mg oral, plasma): 1250 ng/mL
- Tmax ([3]; human, plasma, po, 75 mg, Tmax, median (range), Day 1 (single dose), midostaurin 75 mg oral, plasma): 4 h
- Tmax ([3]; human, plasma, po, 75 mg, Tmax, median (range), Day 3 (twice daily), midostaurin 75 mg oral, plasma): 3.1 h
SMILES: CO[C@@H]1[C@H](N(C)C(=O)c2ccccc2)C[C@H]2O[C@]1(C)n1c3ccccc3c3c4c(c5c6ccccc6n2c5c31)C(=O)N[C@H]4O [CGP52421]
- concentration versus QTcF slope (healthy volunteers [1]): 0.2
- concentration versus QTcF slope (healthy volunteers [1]; listed as CPG52421): either negative or not statistically significant
- concentration at steady state relative to midostaurin and CGP62221 ([2]; daily oral dosing of midostaurin, plasma): approximately seven
- half-life ([2]; human participants): up to 1 month
- treatment needed to reach the steady state ([2]; midostaurin dosing): 21 to 28 days

- time of peak concentrations post dose [4]: 3 to 4 h
- AUC0-12h, mean (SD) ([4]; po, 75 mg): 7848.2 (1579.9) ng * hour/mL
- AUC0-24h, mean (SD) ([4]; po, 75 mg): 36 486.5 (9769.7) ng × hour/mL
SMILES: CN(C(=O)c1ccccc1)[C@@H]1C[C@H]2O[C@@](C)([C@@H]1O)n1c3ccccc3c3c4c(c5c6ccccc6n2c5c31)C(=O)NC4 [CGP62221]

SMILES: COc1c(N2C[C@@H]3CCCN[C@@H]3C2)c(F)cc2c(=O)c(C(=O)O)cn(C3CC3)c12 [Moxifloxacin, reference compound]
- upper limit of the 95% CI of QTcF prolongation from time-matched baseline (healthy volunteers [5]; moxifloxacin 400 mg, 1 h post dose): 14.9 ms
- lower bound of 95% CI, QTcF change from time-averaged baseline compared with placebo (healthy volunteers [5]; [8]): 7.6 ms
- lower bound of the 1-sided 95% CI of QTcF prolongation from time-matched baseline (healthy volunteers [5]; [8]): 6.4 ms and > 5 ms
- maximum mean QTcF change from time-averaged baseline compared with placebo (healthy volunteers [5]; [8]): 10.2 ms
- maximum mean QTcF prolongation from time-matched baseline compared with placebo (healthy volunteers [5]; moxifloxacin single 400-mg dose, 1 h post dose on day 3): 10.7 ms
- slope of QT change from baseline with increasing plasma concentration (healthy volunteers [1]; moxifloxacin, QT): 4.0
- slope of QTcB change from baseline with increasing plasma concentration (healthy volunteers [1]; moxifloxacin, QTcB): 2.6
- slope of QTcF change from baseline with increasing plasma concentration (healthy volunteers [1]; moxifloxacin, QTcF): 3.2 ms per μg/mL
- new U-wave abnormalities (healthy volunteers [6]; 12-lead ECG): 1 case
- new post baseline T-wave abnormalities (healthy volunteers [6]; 12-lead ECG): 4 participants
- PR increase ≥25% and resultant PR >200 ms, participants (healthy volunteers [6]; safety set): 0 no. (%)
- QRS increase ≥25% and resultant QRS >100 ms, participants (healthy volunteers [6]; safety set): 0 no. (%)
- QTcB >60 ms, time-matched change from baseline, participants (healthy volunteers [6]; safety set): 0 no. (%)
- QTcF >30 ms, time-matched change from baseline, participants (healthy volunteers [6]; safety set): 0 no. (%)
- QTcF >60 ms, time-matched change from baseline, participants (healthy volunteers [6]; safety set): 0 no. (%)
- QTcI >30 ms, time-matched change from baseline, participants (healthy volunteers [6]; safety set): 0 no. (%)
- QTcI >60 ms, time-matched change from baseline, participants (healthy volunteers [6]; safety set): 0 no. (%)
- RR decrease ≥25% and resultant RR <600 ms, participants (healthy volunteers [6]; safety set): 0 no. (%)
- RR increase ≥25% and resultant RR >1,200 ms, participants (healthy volunteers [6]; safety set): 0 no. (%)
- QTcB New >450 ms, participants (healthy volunteers [6]; safety set, post baseline, text: between 450 and 480 ms): 1 (2.3%) no. (%)
- QTcB >30 ms, time-matched change from baseline, participants (healthy volunteers [6]; safety set): 7 (15.9) no. (%)
- QTcB >30 ms, time-matched change from baseline, participants (healthy volunteers [6]; safety set, listed as moxifloxacin): 7 (15.9%) no. (%)
- Discontinued, main cause Adverse event(s) (healthy volunteers [7]; randomized set): 0 (0.0) no. (%)
- Discontinued, main cause Death (healthy volunteers [7]; randomized set): 0 (0.0) no. (%)
- Abdominal pain (healthy volunteers [7]; safety set, all grade 1/2): 0 (0.0) no. (%)
- Arthralgia (healthy volunteers [7]; safety set, all grade 1/2): 0 (0.0) no. (%)
- Diarrhea (healthy volunteers [7]; safety set, all grade 1/2): 1 (2.3) no. (%)
- Dizziness (healthy volunteers [7]; safety set, all grade 1/2): 1 (2.3) no. (%)
- Dry mouth (healthy volunteers [7]; safety set, all grade 1/2): 0 (0.0) no. (%)
- Dysmenorrhea (healthy volunteers [7]; safety set, all grade 1/2): 0 (0.0) no. (%)
- Dyspepsia (healthy volunteers [7]; safety set, all grade 1/2): 1 (2.3) no. (%)
- Eructation (healthy volunteers [7]; safety set, all grade 1/2): 0 (0.0) no. (%)
- Flatulence (healthy volunteers [7]; safety set, all grade 1/2): 1 (2.3) no. (%)
- Flushing (healthy volunteers [7]; safety set, all grade 1/2): 0 (0.0) no. (%)
- Headache (healthy volunteers [7]; safety set, all grade 1/2): 4 (9.1) no. (%)
- Hiccups (healthy volunteers [7]; safety set, all grade 1/2): 0 (0.0) no. (%)
- Hot flushes (healthy volunteers [7]; safety set, all grade 1/2): 0 (0.0) no. (%)
- Nausea (healthy volunteers [7]; safety set, all grade 1/2): 5 (11.4) no. (%)
- Pollakiuria (healthy volunteers [7]; safety set, all grade 1/2): 1 (2.3) no. (%)
- Rash (healthy volunteers [7]; safety set, all grade 1/2): 1 (2.3) no. (%)
- Salivary hypersecretion (healthy volunteers [7]; safety set, all grade 1/2): 0 (0.0) no. (%)
- Sexually transmitted disease (healthy volunteers [7]; safety set, all grade 1/2): 0 (0.0) no. (%)
- Vomiting (healthy volunteers [7]; safety set, all grade 1/2): 1 (2.3) no. (%)
- Participants with adverse events (healthy volunteers [7]; safety set, all grade 1/2, 4-day evaluation period): 9 (20.5) no. (%)
- Tachycardia (healthy volunteers [7]; safety set, grade 1, midostaurin-arm cases occurred during placebo run-in (day −1)): 0 (0.0) no. (%)
- Cmax previously reported ([2]; moxifloxacin): 2830 ng/mL
- mean slope estimates, concentration–QTc (QTcF interval; 5 other thorough QTc studies): 2.5 ms per μg/mL and 2.4 ms per μg/mL and 3.3 ms per μg/mL and 3.5 ms per μg/mL and 4.3 ms per μg/mL
- effect on QTc intervals (QTcF interval): prolong QTc intervals in a dose-dependent manner
- expected effect on the QTcF interval (QTcF interval; previous studies): 8 to 13 ms
- Cmax ([3]; human, plasma, oral, 400 mg, geometric mean, moxifloxacin 400 mg overencapsulated, day 3): 2500 ng/mL
- Cmax ([3]; human, plasma, oral, 400 mg, mean, moxifloxacin 400 mg overencapsulated, day 3): 2540 ng/mL
- Cmax ([3]; human, plasma, oral, 400 mg, median, moxifloxacin 400 mg overencapsulated, day 3): 2460 ng/mL
- Tmax ([3]; human, plasma, oral, 400 mg, Tmax, median, moxifloxacin 400 mg overencapsulated, day 3): 2.1 h
- Cmax, mean ([3]; moxifloxacin 400 mg overencapsulated, day 3): 2544 ng/mL

SMILES: CNC(=O)c1cc(Oc2ccc(NC(=O)Nc3ccc(Cl)c(C(F)(F)F)c3)cc2)ccn1 [sorafenib]
- effect on QT interval in clinical trials (QT interval): induce prolongation of the QT interval
